Experimental data from patent US6355799B1, “Substituted benzene compounds, process for their preparation, and herbicidal and defoliant compositions containing them” (ISK Americas Incorporated, priority 1997, dated 2002).

Columns and labels:
Assay type in all cases: in vivo
[1] = system: field corn (Zea mays L., var. Dekalb 535, CORN); experiment: Post-emerge test, crop safety; conditions: post-emerge, 14 days after application, rating scale 0-100
Procedure, shortened: (§1)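 Compounds in acetone were track-sprayed at 15-1000 g ai/ha (187 l/ha) on sandy loam pots: pre-emerge one day after seeding, post-emerge at 2-3 leaf stage with 0.25% v/v non-ionic surfactant. Phytotoxicity was rated 14 days later on a 0 (no damage) to 100 (complete death) scale.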

[2] = system: upland rice (Oryza sp., var. Tebonnet, RICE); experiment: Post-emerge test, crop safety; conditions: post-emerge, 14 days after application, rating scale 0-100
Procedure, shortened: as §1

[3] = system: redroot pigweed (Amaranthus retroflexus, AMARE); experiment: Pre-emerge test, greenhouse herbicide activity screening; conditions: pre-emerge, 14 days after application, rating scale 0-100
Procedure, shortened: (§2)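 Plants grown in 10 cm pots of sandy loam mix received acetone-dissolved compounds through a moving flat-fan nozzle. Doses ranged from 15 to 1000 g ai/ha. Pre-emerge pots were seeded one day earlier, post-emerge pots 8–21 days earlier. Fourteen days on, each pot was graded 0–100 for damage.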

[4] = system: field corn (Zea mays L., var. Dekalb 535, CORN); experiment: Pre-emerge test, crop safety; conditions: pre-emerge, 14 days after application, rating scale 0-100
Procedure, shortened: as §2

[5] = system: upland rice (Oryza sp., var. Tebonnet, RICE); experiment: Pre-emerge test, crop safety; conditions: pre-emerge, 14 days after application, rating scale 0-100
Procedure, shortened: as §2

[6] = system: velvetleaf (Abutilon theophrasti, ABUTH); experiment: Post-emerge test, greenhouse herbicide activity screening; conditions: post-emerge, 14 days after application, rating scale 0-100
Procedure, shortened: (§3)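 Visual ratings on a 0-100 scale (0 no damage, 100 all plants dead) were taken at 14 days after treatment. Rates of 15-1000 g ai/ha in acetone, 187 l/ha, were sprayed onto soil one day after planting (pre-emerge) or onto 2-3 leaf plants with 0.25% v/v surfactant (post-emerge).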

[7] = system: sicklepod (Cassia obtusifolia, CASOB); experiment: as above; conditions: post-emerge, 14 days after application, rating scale 0-100
Procedure, shortened: as §3

[8] = system: common ragweed (Ambrosia artemisizfolia L., AMBEL); experiment: as above; conditions: post-emerge, 14 days after application, rating scale 0-100
Procedure, shortened: as §3

[9] = system: green foxtail (Setaria viridis, SETVI); experiment: as above; conditions: post-emerge, 14 days after application, rating scale 0-100
Procedure, shortened: as §3

[10] = system: redroot pigweed (Amaranthus retroflexus, AMARE); experiment: as above; conditions: post-emerge, 14 days after application
Procedure, shortened: as §3

[11] = system: large crabgrass (Digitaria sanguinalis, DIGSA); experiment: as above; conditions: post-emerge, 14 days after application, rating scale 0-100
Procedure, shortened: as §3

[12] = system: lambsquarters (Chenopodium album, CHEAL); experiment: as above; conditions: post-emerge, 14 days after application, rating scale 0-100
Procedure, shortened: as §3

[13] = system: ivyleaf morningglory (Ipomoea hederacea, IPOHE); experiment: as above; conditions: post-emerge, 14 days after application, rating scale 0-100
Procedure, shortened: as §3

[14] = system: barnyardgrass (Echinochloa crus-galli, ECHCG); experiment: as above; conditions: post-emerge, 14 days after application, rating scale 0-100
Procedure, shortened: as §3

[15] = system: velvetleaf (Abutilon theophrasti, ABUTH); experiment: Pre-emerge test, greenhouse herbicide activity screening; conditions: pre-emerge, 14 days after application, rating scale 0-100
Procedure, shortened: as §1

[16] = system: johnsongrass (Sorghum halepense, SORHA); experiment: as above; conditions: pre-emerge, 14 days after application, rating scale 0-100
Procedure, shortened: as §1

[17] = system: sicklepod (Cassia obtusifolia, CASOB); experiment: as above; conditions: pre-emerge, 14 days after application, rating scale 0-100
Procedure, shortened: as §1

[18] = system: common ragweed (Ambrosia artemisizfolia L., AMBEL); experiment: as above; conditions: pre-emerge, 14 days after application, rating scale 0-100
Procedure, shortened: as §1

[19] = system: green foxtail (Setaria viridis, SETVI); experiment: as above; conditions: pre-emerge, 14 days after application, rating scale 0-100
Procedure, shortened: as §1

[20] = system: large crabgrass (Digitaria sanguinalis, DIGSA); experiment: as above; conditions: pre-emerge, 14 days after application, rating scale 0-100
Procedure, shortened: as §1

[21] = system: lambsquarters (Chenopodium album, CHEAL); experiment: as above; conditions: pre-emerge, 14 days after application, rating scale 0-100
Procedure, shortened: as §1

[22] = system: ivyleaf morningglory (Ipomoea hederacea, IPOHE); experiment: as above; conditions: pre-emerge, 14 days after application, rating scale 0-100
Procedure, shortened: as §1

[23] = system: barnyardgrass (Echinochloa crus-galli, ECHCG); experiment: as above; conditions: pre-emerge, 14 days after application, rating scale 0-100
Procedure, shortened: as §1

[24] = 63 g ai/ha, rating scale 0-100 (0 no damage, 100 complete death)
[25] = 250 g ai/ha, rating scale 0-100

CCOc1c(Cl)cc(F)c(-n2c(=O)cc(C(F)(F)F)n(C)c2=O)c1Cl [14-62]
50: Post-emerge Herbicidal Activity AMARE (phytotoxicity rating) [10, 25] | Post-emerge Herbicidal Activity IPOHE (phytotoxicity rating) ([13]; 250 g ai/ha) | phytotoxicity rating DIGSA ([20]; 250 g ai/ha)
5: Post-emerge Herbicidal Activity CORN (crop damage rating) ([1]; 63 g ai/ha) | Post-emerge Herbicidal Activity CORN (crop damage rating) ([1]; 250 g ai/ha) | Post-emerge Herbicidal Activity RICE (crop damage rating) ([2]; 250 g ai/ha) | phytotoxicity rating CORN ([4]; 250 g ai/ha)
10: Post-emerge Herbicidal Activity CHEAL (phytotoxicity rating) ([12]; 63 g ai/ha)
80: phytotoxicity rating CHEAL ([21]; 250 g ai/ha)
60: Post-emerge Herbicidal Activity ABUTH (phytotoxicity rating) ([6]; 250 g ai/ha) | phytotoxicity rating SORHA ([16]; 250 g ai/ha) | phytotoxicity rating SETVI ([19]; 250 g ai/ha)
0: Post-emerge Herbicidal Activity RICE (crop damage rating) ([2]; 63 g ai/ha) | phytotoxicity rating CORN ([4]; 63 g ai/ha) | phytotoxicity rating RICE ([5]; 63 g ai/ha) | Post-emerge Herbicidal Activity CASOB (phytotoxicity rating) ([7]; 63 g ai/ha) | Post-emerge Herbicidal Activity SETVI (phytotoxicity rating) ([9]; 63 g ai/ha) | Post-emerge Herbicidal Activity SETVI (phytotoxicity rating) ([9]; 250 g ai/ha) | Post-emerge Herbicidal Activity DIGSA (phytotoxicity rating) ([11]; 63 g ai/ha) | Post-emerge Herbicidal Activity DIGSA (phytotoxicity rating) ([11]; 250 g ai/ha) | Post-emerge Herbicidal Activity ECHCG (phytotoxicity rating) ([14]; 63 g ai/ha) | Post-emerge Herbicidal Activity ECHCG (phytotoxicity rating) ([14]; 250 g ai/ha) | phytotoxicity rating SORHA ([16]; 63 g ai/ha) | phytotoxicity rating CASOB ([17]; 63 g ai/ha) | phytotoxicity rating CASOB ([17]; 250 g ai/ha) | phytotoxicity rating AMBEL ([18]; 63 g ai/ha) | phytotoxicity rating SETVI ([19]; 63 g ai/ha) | phytotoxicity rating DIGSA ([20]; 63 g ai/ha) | phytotoxicity rating IPOHE ([22]; 63 g ai/ha) | phytotoxicity rating IPOHE ([22]; 250 g ai/ha) | phytotoxicity rating ECHCG ([23]; 63 g ai/ha)
95: phytotoxicity rating ABUTH ([15]; 250 g ai/ha)
100: phytotoxicity rating AMARE ([3]; 250 g ai/ha)
40: phytotoxicity rating AMARE ([3]; 63 g ai/ha) | Post-emerge Herbicidal Activity ABUTH (phytotoxicity rating) ([6]; 63 g ai/ha) | Post-emerge Herbicidal Activity AMBEL (phytotoxicity rating) ([8]; 63 g ai/ha)
15: phytotoxicity rating RICE ([5]; 250 g ai/ha) | phytotoxicity rating ABUTH ([15]; 63 g ai/ha)
20: Post-emerge Herbicidal Activity CHEAL (phytotoxicity rating) ([12]; 250 g ai/ha) | phytotoxicity rating CHEAL ([21]; 63 g ai/ha) | phytotoxicity rating ECHCG ([23]; 250 g ai/ha)
30: Post-emerge Herbicidal Activity CASOB (phytotoxicity rating) ([7]; 250 g ai/ha) | Post-emerge Herbicidal Activity AMBEL (phytotoxicity rating) ([8]; 250 g ai/ha) | Post-emerge Herbicidal Activity AMARE (phytotoxicity rating) [10, 24] | Post-emerge Herbicidal Activity IPOHE (phytotoxicity rating) ([13]; 63 g ai/ha) | phytotoxicity rating AMBEL ([18]; 250 g ai/ha)

CCOC(=O)C(Cl)Cc1c(OCC)c(Cl)cc(F)c1-n1c(=O)cc(C(F)(F)F)n(C)c1=O (centres unmarked) [14-63]
50: Post-emerge Herbicidal Activity AMBEL (phytotoxicity rating) ([8]; 250 g ai/ha) | Post-emerge Herbicidal Activity SETVI (phytotoxicity rating) ([9]; 63 g ai/ha) | phytotoxicity rating CASOB ([17]; 250 g ai/ha) | phytotoxicity rating ECHCG ([23]; 250 g ai/ha)
15: Post-emerge Herbicidal Activity RICE (crop damage rating) ([2]; 250 g ai/ha)
90: Post-emerge Herbicidal Activity ABUTH (phytotoxicity rating) ([6]; 63 g ai/ha) | Post-emerge Herbicidal Activity DIGSA (phytotoxicity rating) ([11]; 250 g ai/ha)
100: phytotoxicity rating AMARE ([3]; 250 g ai/ha) | Post-emerge Herbicidal Activity ABUTH (phytotoxicity rating) ([6]; 250 g ai/ha) | Post-emerge Herbicidal Activity CASOB (phytotoxicity rating) ([7]; 250 g ai/ha) | Post-emerge Herbicidal Activity AMARE (phytotoxicity rating) [10, 25] | Post-emerge Herbicidal Activity CHEAL (phytotoxicity rating) ([12]; 250 g ai/ha) | Post-emerge Herbicidal Activity ECHCG (phytotoxicity rating) ([14]; 63 g ai/ha) | phytotoxicity rating ABUTH ([15]; 250 g ai/ha) | phytotoxicity rating DIGSA ([20]; 250 g ai/ha)
95: Post-emerge Herbicidal Activity CASOB (phytotoxicity rating) ([7]; 63 g ai/ha) | Post-emerge Herbicidal Activity AMARE (phytotoxicity rating) [10, 24]
5: Post-emerge Herbicidal Activity RICE (crop damage rating) ([2]; 63 g ai/ha)
0: phytotoxicity rating CORN ([4]; 63 g ai/ha) | phytotoxicity rating CORN ([4]; 250 g ai/ha) | phytotoxicity rating RICE ([5]; 63 g ai/ha) | phytotoxicity rating RICE ([5]; 250 g ai/ha) | phytotoxicity rating SORHA ([16]; 63 g ai/ha) | phytotoxicity rating CASOB ([17]; 63 g ai/ha) | phytotoxicity rating AMBEL ([18]; 63 g ai/ha) | phytotoxicity rating IPOHE ([22]; 63 g ai/ha) | phytotoxicity rating IPOHE ([22]; 250 g ai/ha) | phytotoxicity rating ECHCG ([23]; 63 g ai/ha)
70: Post-emerge Herbicidal Activity SETVI (phytotoxicity rating) ([9]; 250 g ai/ha) | Post-emerge Herbicidal Activity IPOHE (phytotoxicity rating) ([13]; 63 g ai/ha) | Post-emerge Herbicidal Activity IPOHE (phytotoxicity rating) ([13]; 250 g ai/ha) | phytotoxicity rating ABUTH ([15]; 63 g ai/ha) | phytotoxicity rating DIGSA ([20]; 63 g ai/ha)
60: phytotoxicity rating AMBEL ([18]; 250 g ai/ha)
99: phytotoxicity rating AMARE ([3]; 63 g ai/ha) | Post-emerge Herbicidal Activity ECHCG (phytotoxicity rating) ([14]; 250 g ai/ha) | phytotoxicity rating SETVI ([19]; 250 g ai/ha) | phytotoxicity rating CHEAL ([21]; 250 g ai/ha)
40: Post-emerge Herbicidal Activity DIGSA (phytotoxicity rating) ([11]; 63 g ai/ha)
20: Post-emerge Herbicidal Activity AMBEL (phytotoxicity rating) ([8]; 63 g ai/ha) | phytotoxicity rating SORHA ([16]; 250 g ai/ha)
80: Post-emerge Herbicidal Activity CORN (crop damage rating) ([1]; 250 g ai/ha) | Post-emerge Herbicidal Activity CHEAL (phytotoxicity rating) ([12]; 63 g ai/ha) | phytotoxicity rating CHEAL ([21]; 63 g ai/ha)
35: Post-emerge Herbicidal Activity CORN (crop damage rating) ([1]; 63 g ai/ha)
30: phytotoxicity rating SETVI ([19]; 63 g ai/ha)
